Source: US20060063784A1, “Method of using substituted pyrazolo [1,5-a] pyrimidines” (priority 2004, published 2006)

Each compound was assayed on 80S14 (p21-deficient) cells (assay: Cytotoxicity assay using isogenic cell lines: IC50 in 80S14 (p21-deficient) cells, SRB). Conditions: 80S14 (p21-deficient) cells, 5 days, SRB; class symbols; read-out: IC50 for 80S14.
Format: cell-based, human
Procedure, shortened: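 80S14 (p21-deficient) cells seeded at 12,000 cells/well overnight, then exposed 5 days at 37 °C to serial dilutions (5 pM–50 μM or 170 pg/ml–10 μg/ml). TCA-fixed, sulforhodamine B-stained, absorbance at 560 nm; IC50 taken from cytotoxicity curves versus untreated controls.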
“N-{3-[3-(2-Thienylcarbonyl)pyrazolo[1,5-a]pyrimidin-7-yl]phenyl}-3-trifluoromethyl)benzamide [Example 281]” was tested, and the IC50 was < 1 µM.

Same assay, conditions: 80S14 p21-deficient cells, 5 days incubation, SRB; read-out: IC50 for 80SI4
With `CCCCCC(=O)Nc1cccc(-c2ccnc3c(C(=O)c4cccs4)cnn23)c1` [Example 153] the IC50 was < 1 µM.
In the case of `C=C(C)OC(=O)Nc1cccc(-c2ccnc3c(C(=O)c4cccs4)cnn23)c1` [Example 21], the IC50 is reported as < 1 µM.
`CC(C)C[C@H](N)C(=O)Nc1cccc(-c2ccnc3c(C(=O)c4cccs4)cnn23)c1` [Example 80, N-1-{3-[3-(thien-2-ylcarbonyl)pyrazolo[1,5-a]pyrimidin-7-yl]phenyl}-L-leucinamide] gave an IC50 of 1 to 10 µM.
`O=C(CNC(=O)C12CC3CC(CC(C3)C1)C2)Nc1cccc(-c2ccnc3c(C(=O)c4cccs4)cnn23)c1` [Example 134, N-[2-oxo-2-({3-[3-(thien-2-ylcarbonyl)pyrazolo[1,5-a]pyrimidin-7-yl]phenyl}amino)ethyl]adamantine-1-carboxamide] was tested, and the IC50 was 1 to 10 µM.

Same assay, conditions: Homo sapiens, 120 h; 80S14 (p21-deficient) cells, 5 days, SRB; class symbols; read-out: IC50 for 80S14
For `CC(C)CC(=O)Nc1cccc(-c2ccnc3c(Br)cnn23)c1` [Example 330, N-[3-(3-Bromopyrazolo[1,5-a]pyrimidin-7-yl)phenyl]-3-methylbutanamide], the IC50 was 10 to 50 µM.
Compound `CC(CCNc1cccc(-c2ccnc3c(C(=O)c4cccs4)cnn23)c1)c1ccccc1` (centres unmarked) [Example 400, (7-{3-[(3-Phenylbutyl)amino]phenyl}pyrazolo[1,5-a]pyrimidin-3-yl)(thien-2-yl)methanone] has an IC50 of 1 to 10 µM.
`Nc1cccc(-c2ccnc3c(Br)cnn23)c1` [Example 326, 3-(3-Bromopyrazolo[1,5-a]pyrimidin-7-yl)aniline] was tested, and the IC50 was 10 to 50 µM.
Work on `CN(C(=O)O)c1cccc(-c2ccnc3c(C(=O)c4cccs4)cnn23)c1` [Example 239, Methyl [3-[3-(2-thienylcarbonyl)pyrazolo-[1,5-a]pyrimidin-7-yl]phenyl}-carbamic acid] yielded an IC50 of 1 to 10 µM.
For `CC(C)(C)c1ccc(C(=O)Nc2cccc(-c3ccnc4c(C(=O)c5cccs5)cnn34)c2)cc1` [Example 287, 4-(tert-butyl)-N-{3-[3-(2-thienylcarbonyl)pyrazolo[1,5-a]pyrimidin-7-yl]phenyl}benzamide], the IC50 was 10 to 50 µM.
With `CN1CCN(Cc2ccc(-c3cccc(-c4ccnc5c(C(=O)c6cccs6)cnn45)c3)cc2)CC1` [Example 460, (7-{4′-[(4-Methylpiperazin-1-yl)methyl]-1,1′-biphenyl-3-yl}pyrazolo[1,5-a]pyrimidin-3-yl)(thien-2-yl)methanone] the IC50 was < 1 µM.
For `Cc1cc(C)cc(-c2cnn3c(-c4cccc(-c5nnn(CCN6CCCCC6)n5)c4)ccnc23)c1` [Example 499, 3-(3,5-Dimethylphenyl)-7-{3-[2-(2-piperidin-1-ylethyl)-2H-tetrazol-5-yl]phenyl}pyrazolo[1,5-a]pyrimidine], the IC50 was 1 to 10 µM.
In the case of `CC(C)NC(=O)c1cccc(-c2ccnc3c(C(=O)c4cccs4)cnn23)c1` [Example 322, N-Isopropyl-3-[3-(2-thienylcarbonyl)pyrazolo[1,5-a]pyrimidin-7-yl]benzamide], the IC50 is reported as < 1 µM.

Same assay, conditions: Homo sapiens, 120 h; 80S14 p21-deficient cells, 5 days incubation, SRB; read-out: IC50 for 80SI4
For `C=C(C)C(=O)Nc1cccc(-c2ccnc3c(C(=O)c4cccs4)cnn23)c1` [Example 43, 2-methyl-N-{3-[3-(thien-2-ylcarbonyl)pyrazolo[1,5-a]pyrimidin-7-yl]phenyl}acrylamide], the IC50 was < 1 µM.
`Cc1cnc2c(C(=O)c3cccs3)cnn2c1-c1cccc(NC(=O)c2ccccc2)c1` [Example 216, N-{3-[6-methyl-3-(thien-2-ylcarbonyl)pyrazolo[1,5-a]pyrimidin-7-yl]phenyl}benzamide] gave an IC50 of 10 to 50 µM.
Work on `NCCCC(=O)Nc1cccc(-c2ccnc3c(C(=O)c4cccs4)cnn23)c1` [Example 84, 4-amino-N-{3-[3-(thien-2-ylcarbonyl)pyrazolo[1,5-a]pyrimidin-7-yl]phenyl}butanamide] yielded an IC50 of 10 to 50 µM.
`CC(C)(C)COC(=O)NCC(=O)Nc1cccc(-c2ccnc3c(C(=O)c4cccs4)cnn23)c1` [Example 121, neopentyl 2-oxo-2-({3-[3-(thien-2-ylcarbonyl)pyrazolo[1,5-a]pyrimidin-7-yl]phenyl}amino)ethylcarbamate] was tested, and the IC50 was 1 to 10 µM.
For `Cc1ccc(C(=O)Nc2cccc(-c3ccnc4c(C(=O)c5cccs5)cnn34)c2)cc1` [Example 87, 4-methyl-N-{3-[3-(thien-2-ylcarbonyl)pyrazolo[1,5-a]pyrimidin-7-yl]phenyl]benzamide], the IC50 was < 1 µM.
In the case of `O=C(Nc1cccc(-c2ccnc3c(C(=O)c4cccs4)cnn23)c1)c1cnc2ccccc2c1` [Example 70, N-{3-[3-(thien-2-ylcarbonyl)pyrazolo[1,5-a]pyrimidin-7-yl]phenyl}quinoline-3-carboxamide], the IC50 is reported as 1 to 10 µM.
In the case of `CC(CC(=O)Nc1cccc(-c2ccnc3c(C(=O)c4cccs4)cnn23)c1)CC(C)(C)C` (centres unmarked) [Example 140, 3,5,5-trimethyl-N-{3-[3-(thien-2-ylcarbonyl)pyrazolo[1,5-a]pyrimidin-7-yl]phenyl}hexanamide], the IC50 is reported as < 1 µM.
For `COCCOCC(=O)Nc1cccc(-c2ccnc3c(C(=O)c4cccs4)cnn23)c1` [Example 63, 2-(2-methoxyethoxy)-N-{3-[3-(thien-2-ylcarbonyl)pyrazolo[1,5-a]pyrimidin-7-yl]phenyl}acetamide], the IC50 was 1 to 10 µM.
With `O=C(CNC(=O)C1CCCCC1)Nc1cccc(-c2ccnc3c(C(=O)c4cccs4)cnn23)c1` [Example 129, N-[2-oxo-2-({3-[3-(thien-2-ylcarbonyl)pyrazolo[1,5-a]pyrimidin-7-yl]phenyl}amino)ethyl]cyclohexanecarboxamide] the IC50 was 10 to 50 µM.
`CC1CC1COC(=O)Nc1cccc(-c2ccnc3c(C(=O)c4cccs4)cnn23)c1` (centres unmarked) [Example 187, (2-methylcyclopropyl)methyl 3-[3-(thien-2-ylcarbonyl)pyrazolo[1,5-a]pyrimidin-7-yl]phenylcarbamate] was tested, and the IC50 was < 1 µM.
With `CCOC(=O)CNC(=O)Nc1cccc(-c2ccnc3c(C(=O)c4cccs4)cnn23)c1` [Example 10, ethyl N-[({3-[3-(thien-2-ylcarbonyl)pyrazolo[1,5-a]pyrimidin-7-yl]phenyl}amino)carbonyl]glycinate] the IC50 was 10 to 50 µM.
`O=C(c1cccs1)c1cnn2c(-c3cccc(NC(=O)C(Cl)(Cl)Cl)c3)ccnc12` [Example 49, 2,2,2-trichloro-N-{3-[3-(thien-2-ylcarbonyl)pyrazolo[1,5-a]pyrimidin-7-yl]phenyl}acetamide] showed an IC50 of 1 to 10 µM.
In the case of `CC(CCl)(CCl)C(=O)Nc1cccc(-c2ccnc3c(C(=O)c4cccs4)cnn23)c1` [Example 141, 3-chloro-2-(chloromethyl)-2-methyl-N-{3-[3-(thien-2-ylcarbonyl)pyrazolo[1,5-a]pyrimidin7-yl]phenyl}propanamide], the IC50 is reported as < 1 µM.
Compound `CC(C)CC(=O)NCC(=O)Nc1cccc(-c2ccnc3c(C(=O)c4cccs4)cnn23)c1` [Example 133, 3-methyl-N-[2-oxo-2-({3-[3-(thien-2-ylcarbonyl)pyrazolo[1,5-a]pyrimidin-7-yl]phenyl}amino)ethyl]butanamide] has an IC50 of 1 to 10 µM.
`O=C(CCCl)Nc1cccc(-c2ccnc3c(C(=O)c4cccs4)cnn23)c1` [Example 139, 3-chloro-N-{3-[3-(thien-2-ylcarbonyl)pyrazolo[1,5-a]pyrimidin-7-yl]phenyl}propanamide] was tested, and the IC50 was < 1 µM.
For `C=CCNC(=O)Nc1cccc(-c2ccnc3c(C(=O)c4cccs4)cnn23)c1` [Example 7, N-allyl-N′-{3-[3-(thien-2-ylcarbonyl)pyrazolo[1,5-a]pyrimidin-7-yl]phenyl}urea], the IC50 was < 1 µM.
